Here are results for five compounds from US20020052343A1, “Salicylamides as serine protease inhibitors” (priority 1999, published 2002).

One assay addresses T1, human Factor Xa (Homo sapiens, UniProt P00742).
T1 construct: purchased Haematologic Technologies, Vt., USA
The assay can be described thus: Factor Xa inhibition, chromogenic substrate hydrolysis, Ki app. The assay is classed as biochemical. Particulars: 2-3 nM human Factor Xa, substrate 1 mM, 50 mM Tris pH 7.5, absorbance at 405 nm, read-out: FXa Ki. Here is the method:
Some of the compounds of the present invention show selectivity between uPA and FXa, with respect to their inhibitory properties. The effectiveness of compounds of the present invention as inhibitors of Urokinase and Factor Xa is determined by using synthetic substrates and purified Urokinase and purified human Factor Xa respectively.
The rates of hydrolysis by the chromogenic substrates were measured both in the absence and presence of compounds of the present invention. Hydrolysis of the substrates result in the release of a chromogenic moiety, which is monitored spectrophotometrically by measuring the increase in absorbance at 405 nano meter (nm). A decrease in the rate of absorbance change at 405 nm in the presence of a inhibitor is indicative of enzyme inhibition. The results of this assay are expressed as the inhibitory constant, Ki app. Factor Xa determinations were made in 50 mM Tris buffer, pH 7.5, containing 1 M NaCl, 5 mM CaCl2, 0.05% Tween-20, and 1.5 mM EDTA. Values of Ki app. were determined by allowing 2-3 nM human Factor Xa (Haematologic Technologies, Vt., USA) to react with the substrate (1 mM) in the presence of an inhibitor. Hydrolysis of the chromogenic substrate is followed spectrophotometrically at 405 nm for five minutes. The enzyme assay routinely yielded linear progression curves under these conditions. Initial velocity measurements calculated from the progress curves by a kinetic analysis program (Batch Ki; Peter Kuzmic, BioKin, Ltd., Madison, Wis.) were used to determine Ki app.

The target in the next assay is T2, human Urokinase (Homo sapiens, UniProt P00749).
T2 construct: purchased American Diagnostica, Conn., USA
Briefly: Urokinase (uPA) inhibition, chromogenic substrate hydrolysis, Ki app. The assay is classed as biochemical. Here is the method:
The effectiveness of compounds of the present invention as inhibitors of Urokinase and Factor Xa is determined by using synthetic substrates and purified Urokinase and purified human Factor Xa respectively.
The rates of hydrolysis by the chromogenic substrates were measured both in the absence and presence of compounds of the present invention. […] The results of this assay are expressed as the inhibitory constant, Ki app. Factor Xa determinations were made in 50 mM Tris buffer, pH 7.5, containing 1 M NaCl, 5 mM CaCl2, 0.05% Tween-20, and 1.5 mM EDTA. […] Initial velocity measurements calculated from the progress curves by a kinetic analysis program (Batch Ki; Peter Kuzmic, BioKin, Ltd., Madison, Wis.) were used to determine Ki app.
Urokinase inhibition determinations were made in 50 mM Tris (pH 7.5), 150 mM NaCl, 0.05% Tween-20, 0.002% antifoam, and 1 mM EDTA. human Urokinase (from American Diagnostica, Conn., USA). […] Initial velocity measurements calculated from the progress curves by a kinetic analysis program (Batch Ki; Peter Kuzmic, BioKin, Ltd., Madison, Wis.) were used to determine Ki app.

T1 sequence (P00742 235-488 limits assumed): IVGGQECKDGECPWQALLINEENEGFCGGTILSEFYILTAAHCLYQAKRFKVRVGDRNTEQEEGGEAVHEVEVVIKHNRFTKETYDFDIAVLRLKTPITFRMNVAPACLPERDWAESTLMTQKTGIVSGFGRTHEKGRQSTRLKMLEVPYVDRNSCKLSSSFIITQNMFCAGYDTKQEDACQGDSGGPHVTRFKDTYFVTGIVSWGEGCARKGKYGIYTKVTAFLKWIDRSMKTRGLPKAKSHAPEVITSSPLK
T1 sequence (P00742 41-179 partner limits assumed): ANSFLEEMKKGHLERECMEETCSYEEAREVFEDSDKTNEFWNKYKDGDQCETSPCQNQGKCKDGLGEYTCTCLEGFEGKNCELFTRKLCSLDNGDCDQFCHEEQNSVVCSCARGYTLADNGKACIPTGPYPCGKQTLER

`Cc1cc(I)c(O)c(C(=O)Nc2ccc(C(=N)N)cc2)c1` [Ex. 1, N-(4—Carbamimidoyl-phenyl)-2-hydroxy-3-iodo-5-methyl-benzamide]: at human Factor Xa, the Ki was found to be 880 nM.

As to `Cc1cc(Br)c(O)c(C(=O)Nc2ccc(C(=N)N)cc2)c1` [Ex. 5], the values for the Ki on human Factor Xa and at human Urokinase were 840 nM and 290 nM, respectively.

As for `N=C(N)Nc1ccc(NC(=O)c2cc3ccccc3cc2O)cn1` [Ex. 201, 3-hydroxy-naphthalene-2-carboxylic acid (6-guanidino-pyridin-3-yl)-amide], the Ki on human Factor Xa was determined as 130000 nM; at human Urokinase, 326 nM.

For the compound `Cc1cc(I)c(O)c(C(=O)Nc2ccc(NC(=N)N)nc2)c1` [Ex. 205], the Ki at human Factor Xa stood at 290000 nM; on human Urokinase, 5500 nM.

`CC(C)c1cc(C(=O)Nc2ccc(C(=N)N)cc2)c(O)c(C(C)C)c1` [compound 24]: the Ki worked out at 34000 nM on human Factor Xa and 2900 nM at human Urokinase.
